Assay results published in the supplement of paper PMC10307832.

Experiments:
Test in all cases: relative viability (nuclei count vs DMSO), 5 days (fraction); higher = more cells survive
[1] = compound: Cc1cc(Nc2cc(N3CCN(C)CC3)nc(Sc3ccc(NC(=O)C4CC4)cc3)n2)n[nH]1 [Tozasertib] + CCNC(=O)c1noc(-c2cc(C(C)C)c(O)cc2O)c1-c1ccc(CN2CCOCC2)cc1 [Luminespib] (partner 0.01 µM)
Summary of the method: (§1)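 For relative viability, nuclei counts in treated wells were divided by those in vehicle wells. Lung cancer cell lines had been pin-tool dosed in 1536-well plates the day after seeding and cultured for 5 days, then fixed and stained in one step (final 0.05% Triton X-100, 1% formaldehyde, 1 ug/ml Hoechst) and imaged at 4×. Doses were one drug alone or a fixed anchor-drug dose plus five library-drug doses (not always all listed) in √10 steps, and values are duplicate-plate medians.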

[2] = compound: Cc1cc(Nc2cc(N3CCN(C)CC3)nc(Sc3ccc(NC(=O)C4CC4)cc3)n2)n[nH]1 [Tozasertib] + COc1cccc2cc(-c3nc([C@H]4CC[C@H](C(=O)O)CC4)n4ncnc(N)c34)[nH]c12 [OSI-027] (partner 0.5 µM)
Summary of the method: as §1

[3] = compound: Cc1cc(Nc2cc(N3CCN(C)CC3)nc(Sc3ccc(NC(=O)C4CC4)cc3)n2)n[nH]1 [Tozasertib] + CC(=O)Nc1cccc(-n2c(=O)n(C3CC3)c(=O)c3c(Nc4ccc(I)cc4F)n(C)c(=O)c(C)c32)c1 [Trametinib] (partner 0.02 µM)
Summary of the method: as §1

[4] = compound: Cc1cc(Nc2cc(N3CCN(C)CC3)nc(Sc3ccc(NC(=O)C4CC4)cc3)n2)n[nH]1 [Tozasertib] + CC(=O)c1c(C)c2cnc(Nc3ccc(N4CCNCC4)cn3)nc2n(C2CCCC2)c1=O [Palbociclib] (partner 0.5 µM)
Summary of the method: as §1

Cell Line	relative viability ([1]; first compound 0.004 µM)	relative viability ([1]; first compound 0.01265 µM)	relative viability ([1]; first compound 0.04 µM)	relative viability ([1]; first compound 0.1265 µM)	relative viability ([2]; first compound 0.004 µM)	relative viability ([2]; first compound 0.04 µM)	relative viability ([2]; first compound 0.1265 µM)	relative viability ([3]; first compound 0.004 µM)	relative viability ([3]; first compound 0.01265 µM)	relative viability ([3]; first compound 0.04 µM)	relative viability ([4]; first compound 0.004 µM)	relative viability ([4]; first compound 0.01265 µM)	relative viability ([4]; first compound 0.04 µM)	relative viability ([4]; first compound 0.1265 µM)	relative viability ([2]; first compound 0.01265 µM)	relative viability ([3]; first compound 0.1265 µM)
LCLC-103H	0.935	1.05	1.08	0.72	0.504	0.503	0.388	0.659	0.71	0.675	0.481	0.45	0.502	0.52		
LK-2	0.204	0.195	0.166	0.172	0.184	0.198	0.182	0.859	0.646	0.739	0.736	0.782	0.887	0.378	0.199	0.353
LOU-NH91		0.354	0.33	0.336		0.763	0.728	0.692	0.811	0.838	0.526	0.536	0.512	0.529	0.675	0.793
LU99A	0.225	0.249	0.27	0.218	0.307	0.269	0.269	0.545	0.504	0.494	0.423	0.386	0.369	0.324	0.278	0.373
LXF-289	0.573	0.51	0.664	0.399	0.695	0.779	0.441	0.69	0.625	0.685	0.63	0.6	0.561	0.583	0.731	0.571
NCI-H23	0.198	0.221	0.183	0.198	0.614	0.666	0.453	0.356	0.435	0.426	0.58	0.518	0.498	0.313	0.629	0.223
NCI-H322M	0.805	0.996	0.851	0.564	0.546	0.561	0.412	0.498		0.573		0.515	0.466	0.486	0.502	0.458
NCI-H358	0.265	0.394	0.382	0.234	0.779	0.982	0.125	0.137	0.0985	0.132	0.14	0.135	0.168	0.0747	0.803	0.0814
NCI-H441	0.361	0.323	0.312	0.261	0.57	0.568	0.6	0.575	0.393	0.428	0.222	0.186	0.213	0.203	0.647	0.318
NCI-H460	0.031	0.0376	0.0324	0.0295	0.855	0.668	0.519	0.132	0.129	0.113	0.172	0.18	0.196	0.115	0.645	0.0704
